From patent US20150232954A1, “Method for quantifying different viral forms of the DNA of the HIV virus” (UNIVERSITE PARIS DIDEROT - PARIS 7, priority 2012, published 2015) come the findings set out here.

Structures are written as SMILES.

The test system of test [1] is 2-LTR or 1-LTR bands of HIV-1 viral DNA. Briefly: Accumulation of 2-LTR and 1-LTR bands with INSTI (Example 4). Format: cell-based. Conditions: for 2 LTR bands as share of the viral forms: 500 nM to 5 μM, 48 h post-infection; for accumulation of 2-LTR or 1-LTR bands on varying the concentration: from 500 nM to 5 μM. Here is the method: Quantification of the 1-LTR bands. The quantifications were carried out by real-time PCR on a Light Cycler apparatus (Roche Diagnostics, Meylan, France) with the aid of the second derivative method provided with the Light Cycler quantification software, version 3.5 (Roche Diagnostics). The number of DNA copies of the 1-LTR bands was determined by quantifying the viral molecules with the aid of primers which hybridize to the genes gag and env, as well as to hybridization probes. The reaction mixtures contain 1× LightCycler FastStart DNA master HybProbes buffer (Roche Diagnostics reference 12239272001), 4 mM MgCl2, 300 nM of 1-LTR LA1 primers (5′-[…]-3′, SEQ ID NO: 1) and 1-LTR LA16 (5′-[…]-3′, SEQ ID NO: 2) and 200 nM of LTR FL* hybridization probes (5′-[…]^a-3′, SEQ ID NO: 3) and LTR LC*(5′-[…]^b-3′, SEQ ID NO: 4) (^aFluorescein at the 3′ end; ^bLC red 640 at the 5′ end and phosphorylated at the 3′ end) in a final volume of 20 μl. The conditions of the PCR cycles for the quantification of the 1-LTR bands are the following: denaturation step for 8 min followed by 40 cycles (95° C. for 10 s, 60° C. for 10 s, and 72° C. for 25 s). The number of copies of 1-LTR bands was determined by reference to a calibration curve prepared by amplifying quantities ranging from 100 to 10^5 copies of p1-LTR.
(§1) The bands at 2-LTR are amplified by the primers flanking the LTR-LTR junction (HIVF and HIVR1 primers) (Brussel & Sonigo (2003) Journal of Virology 77:10119-10124). The viral DNA integrated is quantified by Alu-PCR (Brussel & Sonigo (2003) Journal of Virology 77:10119-10124). The U5-gag sequences, the 2-LTR junctions as well as the specific amplification of the integrated DNA are amplified in duplicate starting from 1/50 of the extraction of cell DNA. The number of copies is normalized per μg of DNA by measuring the quantity of β-globin gene in 1/50 of the DNA extract (Table 1).

Test [2] has as its system maturation reaction (3′-processing). Briefly: Effect of INSTI on the maturation reaction (3′-processing) in infected cells (Example 4). It is filed as cell-based, HIV-1. Conditions: for effect on the maturation step: 500 nM inhibitor; for maturation efficacy: 2.5 μM inhibitor. The source says: Quantification of 3′ non-mature and mature linear forms of the DNA of HIV-1 by LM-PCR. The strategy used in order to quantify the linear viral DNA is based on the ligation of a linking oligonucleotide (or “linker”) at the ends of the viral ends followed by two PCRs according to the protocol of Pierson et al. (Pierson et al. (2002) Journal of Virology 17:8518-8531). Major improvements have been made in order to implement an approach of quantitative PCR type.

Another test has as its target T1, recombinant integrase (Human immunodeficiency virus type 1 group M subtype B, UniProt P12497).
T1 construct: with the aid of recombinant integrase
Description: In vitro maturation reaction with recombinant integrase. Format: biochemical, HIV-1.

In a further test the test system is maturation reaction. Briefly: Confirmation of the effect on maturation with a radiolabeled probe derived from the PCR. Format: cell-based, HIV-1. Conditions: 5 μM inhibitor. The source says:
The different effects of each of the inhibitors on the maturation reaction were confirmed with the aid of a radiolabeled probe derived from the PCR.

The subject of test [3] is maturation reaction in primary CD4+ T lymphocytes infected with Δenv virus of wild-type. Description: Efficacy of maturation during infection of primary CD4+ T lymphocytes. It is filed as cell-based, HIV-1. The note with it: 5 μM inhibitor. The source says:
In addition, the accumulation kinetics of the 1-LTR and 2-LTR bands are similar in the primary cells with respect to cells of cellular line.

The subject of another test is viral integration. Description: Inhibition of viral integration by INSTI (Example 4). Conditions: for IC50: Human immunodeficiency virus 1, read-out: IC50 for inhibition of viral integration. It is filed as cell-based, HIV-1.
For test [4], the system named is maturation (3′-processing) of the linear viral DNA of HIV-1 in CEM cells. Description: Quantification of mature and non-mature linear viral DNA by LM-PCR after infection of CEM cells. It is filed as cell-based.
The test system of test [5] is integration of HIV-1 viral DNA in infected cells. Briefly: Quantification of integrated viral DNA by Alu-PCR in infected cells. It is filed as cell-based. The note with it: WT virus, 500 nM raltegravir, FIG. 3D.
Source text: as §1

On to `C[C@@H]1CCO[C@H]2Cn3cc(C(=O)NCc4ccc(F)cc4F)c(=O)c(O)c3C(=O)N12` [DTG, dolutegravir], for which, in test [1], the “2 LTR bands as share of the viral forms” value is reported as approximately 40% and the “accumulation of 2-LTR or 1-LTR bands on varying the concentration” value is given as “does not lead to an increase”. In test [2], the “effect on the maturation step” value was “not affected” and the maturation efficacy entry was “approximately 40%”. For the same compound, the IC50 on recombinant integrase is 2000 nM. The effect on maturation entry in the test with maturation reaction was “significantly inhibit maturation”. Moreover, the “efficacy of the maturation reaction influenced or not” value in test [3] is recorded as “influenced”. For the same compound, in the test with viral integration, the “lowest concentration completely inhibiting viral integration” value worked out at 500 nM and the IC50 was 2 nM.

As for `COc1cc2c(cc1Cc1cccc(Cl)c1F)c(=O)c(C(=O)O)cn2[C@H](CO)C(C)C` [EVG, elvitegravir], in test [1], the “2 LTR bands as share of the viral forms” value is approximately 40% and the “accumulation of 2-LTR or 1-LTR bands on varying the concentration” value is listed as “does not lead to an increase”. Also, in test [2], the “effect on the maturation step” value is recorded as “not affected” and the maturation efficacy entry is listed as “approximately 40%”. The effect on maturation result in the test with maturation reaction is listed as “significantly inhibit maturation”. Moreover, the “efficacy of the maturation reaction influenced or not” value in test [3] is given as “influenced”. In the test on viral integration, the “lowest concentration completely inhibiting viral integration” value is listed as 500 nM and the IC50 stood at 2 nM.

With `COc1cc(/C=C/c2ccc3ccc(C(=O)O)c(O)c3n2)cc(O)c1O` [FZ41], in test [4] (wild-type integrase virus, 20 μM FZ41 at the time of infection, 20 hours post-infection (75% without compound)), the “percentage of mature viral DNA” value is 28%.

In the case of `Cc1nnc(C(=O)NC(C)(C)c2nc(C(=O)NCc3ccc(F)cc3)c(O)c(=O)n2C)o1` [RAL, raltegravir], in test [4] (500 nM raltegravir, achieved 8 hours post-infection), the “quantity of linear viral DNA (mature and non-mature), compared with WT” value was “the same”. The “quantity of mature viral DNA with or without raltegravir” value in test [4] (WT virus, 500 nM raltegravir) is given as “similar”. For the same compound, the “effect on the maturation step” value in test [2] is given as “not affected”. In addition, the “maturation activity / maturation efficacy” value in test [2] (5 μM inhibitor) stood at 80%. The “detection of integrated viral DNA” value in test [5] was “inhibition of the detection of integrated viral DNA”. In addition, the “efficacy of the maturation reaction influenced or not” value in test [3] is “not”. In the test on viral integration, the “lowest concentration completely inhibiting viral integration” value is 500 nM and the IC50 was determined as 8 nM.
